Data reported in patent US6326402A, “Methods for treating viral infections using a compound capable of inhibiting microtubules” (Octamer, Inc., priority 1998, dated 2001).
“Also recorded” adds a separate entry of the source. Where two headings read alike, the source gives them in different places.

Assays:
[1] = tested on: viral replication; experiment: Anti-viral activity of DIME analogues and homologues (cellular assays and in vivo); assay type: cell-based
[2] = tested on: human cancer cells; conditions: relative to DIME; U.S. Ser. Nos. 08/655,267 and 08/833,272; cited from earlier work
[3] = Toxicity to human white cells; assay type: cell-based; conditions: white blood cells
Method: (§1) Nocodazole is a well known antitubulin drug. It is highly toxic. Thus, we established a concentration that is relatively harmless to human white cells, i.e. between 0.1 and 1 μM. At […] , nocodazole depressed HIV production by 40% thereby simulating the action of DIME. However DIME is completely nontoxic up to about 320 μM.

[4] = tested on: tadpole metamorphosis; conditions: as determined by tadpole metamorphosis; cited from earlier work
[5] = tested on: tubulin; conditions: cited from earlier work
[6] = Serum half-life and bioavailability of 14C-labeled DIME in mice; assay type: in vivo
Method: Mice were orally dosed with 126 mg/kg 14C-labeled DIME (Compound 1). After dosing, blood sampling times were 15 and 30 minutes and 1, 2, 4, 6, 8 and 24 hours. Aliquots (50 μL) of blood were assayed in a liquid scintillation counter and data expressed as microgram-equivalents per mL.
The blood level data were analyzed by the RSTRIP method (Micromath, Salt Lake City, Utah). Parallel groups of mice were dosed intravenously with 24.5 mg/kg 14C-labeled DIME and blood sampling times were 10, 20 and 30 minutes and 1, 2, 4, 6 and 8 hours.

[7] = tested on: HIV-1 (strains HIV-, 89.6 and HIV-1 SF162); experiment: HIV replication in stimulated human lymphocytes (reverse transcriptase assay); assay type: cell-based, HIV-1 in human lymphocytes
Method: Inhibition of HIV replication in human white cells by DIME
Lymphocytes were obtained from the Sacramento Blood Bank. After stimulation of cells with phytohaemagglutinine for 3 days, cells were exposed to varying concentrations of DIME (see abscissa of FIG. 1) and incubated for 2 hours at 37° C., 5% CO2, followed by the addition of 3.2×10^5 TCID50 HIV-1 viruses (strains HIV-, 89.6 and HIV-1 SF162). Viral growth was allowed to proceed for 3 days.
as §1

[8] = tested on: HIV harboring cells; assay type: in vitro ADME, human
[9] = tested on: apoptosis; conditions: disruption of microtubules; cited from earlier work
[10] = tested on: MDA-MB-231 (human mammary cancer) cells; experiment: MDA-MB-231 xenografts in nude mice, tumor volume; assay type: in vivo, human tumor xenograft in nude mice
Description: The ability of human tumors to grow as xenografts in athymic mice (e.g., nude mice) provides a useful in vivo model for studying the biological response to therapies for human tumors. Since the first successful xenotransplantation of human tumors into athymic mice ([…] et al., 1969, Acta Pathol. Microbial. Scand. 77:758-760), many different human tumor cell lines (e.g., mammary, lung, genitourinary, gastrointestinal, head and neck, glioblastoma, bone and malignant melanomas) have been successfully transplanted and grown into nude mice. Human mammary tumor cell lines, including MCF-7, ZR75-1 and MDA-MB-23 1, have been established as subcutaneous grafts in nude mice (Warri et al., 1991, Intl. J. Cancer 49:616-23; Ozzello et al., 1980, Eur. J. Cancer 16:553-559; Osbourne et al., 1985, Cancer Res. 45:584-590; Siebert et al., 1983, Cancer Res. 43:2223-2239). […] Experimental Protocol MDA-MB-231 (human mammary cancer) cells were obtained from American Type Culture Collection (Rockville, Md.) and maintained in the recommended growth media. Twenty nude mice were each inoculated subcutaneously with MDA-MB-231 cells (10^6 cells/100 […]). To one group of ten mice, DIME was administered by gavage (250 mg/kg, 10 mL/kg in corn oil) once […] per day, 5 days per week, for a total of 32 days. The other (control) group of ten mice was given administered vehicle only according to the same dosing schedule. Tumors were measured twice weekly using a Vernier caliper, and the mean tumor volume was determined at each time point. Comparisons between groups were made using an unpaired, two-tailed t-test and the results were analyzed using analysis of variance.

[11] = tested on: tubulin; conditions: cited from earlier work; remark: listed apart in the source
[12] = Toxicity, daily oral dosing of nude mice; assay type: in vivo; conditions: 1 g/kg daily, 12-15 days
Method: Ten nude mice were administered a daily oral dose of ^14 C-labeled DIME (Compound 1) (1.0 g/kg, 0.1 ml, in corn oil) for a period of 12-15 days.

[13] = tested on: tumor cells; conditions: cited from earlier work
[14] = tested on: human lymphocytes
Method: Intracellular DIME analysis in human lymphocytes was performed as described (Mendeleyev et al., Intl. J. Oncol. 10:689-695 (1997)) with the aid of ^14 C-DIME. After exposure of lymphocytes to varying concentrations of ^14 C-DIME, cells were centrifuged through di-n-butyl phthalate/dinonylphthalate and separated cell pellets were dissolved in 0.3 M NaOH and counted. Cell volume was determined as reported (Gewert et al. Eur. J. Biochem. 116:487-494 (1981)).

[15] = tested on: uptake of iodine into the thyroid; conditions: cited from earlier work
[16] = tested on: non-malignant mouse pituitary adenoma; conditions: in vivo; cited from earlier work
[17] = tested on: human white cells; conditions: cited from earlier work
[18] = tested on: Ras and apoptosis-regulating kinases (ASK1), JNK pathway, MEKK1/SEK1 and c-Jun/AP-1; conditions: cited from earlier work
[19] = compared with vincristine; cited from earlier work

Structure (SMILES): CCCOc1ccc(Oc2c(I)cc(C(=O)OC)cc2I)cc1 [Compound 3, Methyl 3,5-diiodo-4-(4'-n-propoxyphenoxy)benzoate]
- anti-viral activity [1]: inactive

Structure (SMILES): CCOC(=O)c1cc(I)c(Oc2ccc(OC)cc2)c(I)c1 [Compound 5, Ethyl 3,5-diiodo-4-(4'-methoxyphenoxy)benzoate]
- anti-viral activity [1]: inactive

Structure (SMILES): COC(=O)c1cc(I)c(Oc2ccc(OC)cc2Cl)c(I)c1 [Compound 14, Methyl 3,5-diiodo-4-(2'-chloro-4'methoxyphenoxy)benzoate]
- maximal inhibitory action on the growth of human cancer cells as compared to DIME [2]: about 25%

Structure (SMILES): COC(=O)c1cc(I)c(Oc2ccc(OC)cc2)c(I)c1 [DIME, Methyl 3,5-diiodo-4-(4'-methoxyphenoxy)benzoate]
- MNTC ([3]; up to about, read-out: concentration up to which completely nontoxic): ~320 µM
- metabolic or cell differentiating activity [4]: no significant metabolic or cell differentiating activity
- inhibition of tubulin polymerization [5]: inhibition of tubulin polymerization
- i.v. serum half-life (t1/2) ([6]; i.v., 24.5 mg/kg): about 4 hours
- area under the blood concentration-time curve, intravenous ([6]; intravenous, 24.5 mg/kg, mice, 14C-labeled DIME): 156 µg·h/mL
- half-life (t1/2) ([6]; mice, 14C-labeled DIME, 126 mg/kg oral, 24.5 mg/kg i.v.): 2 to 2.5 h
- area under the blood concentration-time curve, oral ([6]; oral, 126 mg/kg, mice, 14C-labeled DIME): 665.28 µg·h/mL
- half-life in serum ([6]; serum, route and species not stated): about 4 hours
- reverse transcriptase activity in cell supernatant as a function of DIME concentration (FIG. 1) ([7]; cpm, 2 h preincubation, viral growth 3 days): progressively diminishes as a function of DIME concentration; also recorded: decreases with increased "DIME" concentration
- inhibition of HIV replication in human lymphocytes, concentration compared with microtubule disruption in tumor cells ([7]; human lymphocytes): at the same concentration as it disrupts microtubules in tumor cells
- DIME uptake by HIV infected cells [8]: significant drug uptake
- induction of apoptosis [9]: induces apoptosis
- MDA-MB-231 tumor volume Day 14 ± SEM ([10]; 250 mg/kg by gavage, 5 days per week, control 284.6 ± 42.0, p = 0.06): 172.0 ± 34.3
- MDA-MB-231 tumor volume Day 21 ± SEM ([10]; 250 mg/kg by gavage, 5 days per week, control 622.2 ± 58.1, p = 0.02): 285.7 ± 62.4
- MDA-MB-231 tumor volume Day 28 ± SEM ([10]; 250 mg/kg by gavage, 5 days per week, control 979.0 ± 154, p = 0.01): 430 ± 85.6
- MDA-MB-231 tumor volume Day 32 ± SEM ([10]; 250 mg/kg by gavage, 5 days per week, control 1176.6 ± 222.4, p = 0.01): 543.8
- % decrease of tumor volume, Day 14 ([10]; 250 mg/kg, vs vehicle control): 40%
- % decrease of tumor volume, Day 21 ([10]; 250 mg/kg, vs vehicle control): 54%
- % decrease of tumor volume, Day 28 ([10]; 250 mg/kg, vs vehicle control): 56%
- % decrease of tumor volume, Day 32 ([10]; 250 mg/kg, vs vehicle control): 54%
- reduction of malignant tumor growth ([10]; non-optimized treatment regimen): significant reduction of malignant tumor growth
- anti-viral activity [1]: highly active
- binding to microtubules ([11]; shown experimentally): binding to cellular microtubules
- ill effects on daily oral dosing [12]: No ill effects
- permeation into tumor cells in vivo [13]: selective permeation into tumor cells in vivo
- DIME uptake by normal or stimulated white cells [14]: do not take up significant quantities
- inhibition of uptake of iodine into the thyroid ([15]; rats, as compared to thyroxine): 15%
- growth inhibition of non-malignant mouse pituitary tumor [16]: no inhibitory activity

Structure (SMILES): COC(=O)Nc1nc2ccc(C(=O)c3cccs3)cc2[nH]1 [Nocodazole, reference compound]
- MNTC [3]: 0.1 to 1 µM
- toxicity (general statement) [17]: highly toxic
- inhibition at 0.1 µM ([7]; Human immunodeficiency virus 1, Lymphocyte, 72 h, read-out: depression of HIV production): 40%

Structure (SMILES): CC(=O)O[C@H]1C(=O)[C@@]2(C)[C@H]([C@H](OC(=O)c3ccccc3)[C@]3(O)C[C@H](OC(=O)[C@H](O)[C@@H](NC(=O)c4ccccc4)c4ccccc4)C(C)=C1C3(C)C)[C@]1(OC(C)=O)CO[C@@H]1C[C@@H]2O [taxol]
- activation of kinase pathways [18]: can activate both Ras and apoptosis-regulating kinases (ASK1), pathways

Structure (SMILES): NC(Cc1cc(I)c(Oc2cc(I)c(O)c(I)c2)c(I)c1)C(=O)O (stereo not shown) [thyroxine, reference compound]
- metabolic or cell differentiating activity [4]: induces cell differentiation
- suppression of iodine uptake by the thyroid ([15]; rat, in vivo): suppresses uptake of iodine by the thyroid
- growth inhibition of non-malignant mouse pituitary tumor [16]: depress growth

Structure (SMILES): CC[C@]1(O)C[C@H]2CN(CCc3c([nH]c4ccccc34)[C@@](C(=O)OC)(c3cc4c(cc3OC)N(C=O)[C@H]3[C@@](O)(C(=O)OC)[C@H](OC(C)=O)[C@]5(CC)C=CCN6CC[C@]43[C@@H]65)C2)C1 [vincristine, reference compound]
- KD vs tubulin relative to DIME ([11]; may be, relative to DIME): thousand-fold higher

Structure (SMILES): CC[C@]1(O)C[C@@H]2CN(CCc3c([nH]c4ccccc34)[C@@](C(=O)OC)(c3cc4c(cc3OC)N(C)[C@H]3[C@@](O)(C(N)=O)[C@H](O)[C@]5(CC)C=CCN6CC[C@]43[C@@H]65)C2)C1 [vindesine, 4-desacetyl vinblastine C-3 carboxamide]
- neurotoxicity in humans [19]: less neurotoxicity than does vincristine
